Where two headings read alike, the source gives them in different places.

One experiment has as its system MOLP-8. Put plainly: In vitro cell viability assay (CellTiter-Glo, ATP levels), multiple myeloma cells. The format is cell-based. The note with it: Homo sapiens, MOLP-8, 168 h. As to the method:
(§1) In Vitro Cell Viability Assay
(§2) The present disclosure provides a method for inhibiting cell viability, as measured by ATP levels. The method for inhibiting cell viability is drawn to contacting various cancer cells with the compounds described herein at various concentrations. The cancer cell lines were maintained in culture conditions at 37° C. in an atmosphere of 5% CO2 in air. The cells growing in an exponential growth phase were harvested and counted for plating. Compounds were incubated in two cancer cell types representing multiple myeloma (MOLP-8) and triple negative breast cancer (DU4475). Cells were plated at an optimized cell numbers per well in 96-well plates and allowed to attach to the plates overnight at approximately 80% confluency.
(§3) After addition of compounds, plates were incubated for 7-day. At the end of incubation period on day 8, media was removed and replaced with a solution of CellTiter-Glo™ reagent (Promega®) according to protocol. Luminescence was read using an EnVision® multi-label plate reader (Perkin-Elmer®), and signal intensity was calculated relative to positive and negative control wells. Cisplatin was included as the positive control. A dose-response calculation was performed in a non-linear regression fit and by using the Hill equation to calculate a concentration-response curve and 50% inhibitory concentration (IC50) values for each compound.
(§4) The average IC50 values of compounds 1-15 in multiple myeloma (MOLP-8) and triple negative breast cancer (DU4475) cells are shown in Table 1.
(Cellular ATP, detected with luciferase, serves as a proxy for viable cell number.)

For another experiment, the system named is DU4475. Description: In vitro cell viability assay (CellTiter-Glo, ATP levels), triple negative breast cancer cells. The format is cell-based. The note with it: Homo sapiens, DU-4475, 168 h. The procedure: as §1, §2, §3, §4
For experiment [1], the system named is HCT116 (colorectal cancer) cells. Description: Resazurin-based cell viability assay using colorectal cancer cells. The conditions noted are these: Homo sapiens, HCT-116, 72 hr incubation. The procedure: Determination of Potency of Compounds in Cell Viability Assay Using Colorectal Cancer Cells
The blue dye resazurin-based assay was performed to determine cell viability and used according to manufacture protocol (Sigma®). HCT116 (colorectal cancer) cells were seeded in the DMEM medium (10% FBS serum). Approximately 1,500 cells were plated per well in 96 well plates. Cells were allowed to grow at 37° C. for 24 hr in 5% CO2 environment in a humidified incubator. Serially diluted compounds (100 μL) were added to the culture plate after 24 hr. After addition of compounds, plates were incubated for 72 hr. Experiment was terminated at the designated incubation time by replacing the medium with 100 μL of 1 mM of resazurin (Sigma®) prepared in culture medium (DMEM) and were further incubated in culture conditions for 4-6 hours. Fluorescence was recorded using a multimodal plate reader (Biotek Synergy Neo®) at an excitation wavelength of 535 nm and emission wavelength of 590 nm to obtain relative fluorescence units. Data analysis was done by subtracting the background fluorescence (medium blank) value from each reading and then normalizing with the vehicle control (DMSO treated cells) to obtain percent survival/proliferation. IC50 was calculated from percent survival values using GraphPad Prism® (see Table 1).

Setting [2] is: 7-day incubation, CellTiter-Glo, average values, read-out: MOLP-8 IC50.
Setting [3] is: 7-day incubation, CellTiter-Glo, average values, read-out: DU4475 IC50.

By IC50 is commonly meant the concentration that gives 50% inhibition. Regarding `CC(C)(C)OC(=O)N1CCC(/C=C(/C(=O)N2CCC=CC2=O)c2ccccc2)CC1` [Compound 91, (E)-tert-butyl 4-(3-oxo-3-(2-oxo-5,6-dihydropyridin-1(2H)-yl)-2-phenylprop-1-enyl)piperidine-1-carboxylate], the IC50 with MOLP-8 (setting [2]) turned out to be 3200 nM; in the experiment on DU4475 (read-out: DU4475 IC50), 4140 nM; in experiment [1] it was 9160 nM.

Turning to `COc1cc(/C=C/C(=O)N2CC(O)C=CC2=O)cc2c1OCCO2` (stereo not shown) [Compound 25, 5-hydroxy-1-[(2E)-3-(8-methoxy-2,3-dihydro-1,4-benzodioxin-6-yl)prop-2-enoyl]-5,6-dihydropyridin-2(1H)-one], the IC50 with MOLP-8 (setting [2]) was determined as 370 nM; in the experiment on DU4475 (setting [3]), 1770 nM; in experiment [1], 4610 nM.

Consider `C/C(=C/C1CCN(C(=O)OC(C)(C)C)CC1)C(=O)N1CCC=CC1=O` [Compound 71, (Z)-tert-butyl 4-(2-methyl-3-oxo-3-(2-oxo-5,6-dihydropyridin-1(2H)-yl)prop-1-enyl)piperidine-1-carboxylate], for which the IC50 in the experiment with MOLP-8 (setting [2]) worked out at 3910 nM; in the experiment on DU4475 (setting [3]) it was 4670 nM; in experiment [1], 13600 nM.

Take `Cn1cc(/C=C(/C(=O)N2CCC=CC2=O)c2ccccc2)cn1` [Compound 83, 1-[(2E)-3-(1-methyl-1H-pyrazol-4-yl)-2-phenylprop-2-enoyl]-5,6-dihydropyridin-2(1H)-one]: the IC50 with MOLP-8 (setting [2]) was determined as 2750 nM; in the experiment on DU4475 (setting [3]), 4840 nM; in experiment [1] it was 11100 nM.

`O=C1C=CCCN1C(=O)/C=C/c1ncc2ccccc2n1` [Compound 48, (E)-1-(3-(quinazolin-2-yl)acryloyl)-5,6-dihydropyridin-2(1H)-one]: the IC50 in the experiment with MOLP-8 (setting [2]) worked out at 290 nM; in the experiment with DU4475 (setting [3]), 350 nM.

Regarding `Cn1cc(/C=C/C(=O)N2CCC=CC2=O)c2ccccc21` [Compound 52, 1-[(2E)-3-(1-methyl-1H-indol-3-yl)prop-2-enoyl]-5,6-dihydropyridin-2(1H)-one], the figures for the IC50 in the experiment with MOLP-8 (setting [2]) and with DU4475 (setting [3]) were 1000 nM and 1520 nM, respectively.

For `O=C1C=CCCCN1C(=O)/C=C/c1ccc2ccccc2n1` [Compound 15, (E)-1-(3-(quinolin-2-yl)acryloyl)-1,5,6,7-tetrahydro-2H-azepin-2-one], the IC50 in the experiment with MOLP-8 (setting [2]) worked out at 500 nM; in the experiment with DU4475 (setting [3]), 500 nM; in experiment [1] it was 880 nM.

Consider `CC1=CCCN(C(=O)/C=C/c2cnn(C)c2)C1=O` [Compound 93, (E)-3-methyl-1-(3-(1-methyl-1H-pyrazol-4-yl)acryloyl)-5,6-dihydropyridin-2(1H)-one], for which, in experiment [1], the IC50 worked out at 88300 nM.

With `O=C1C=CCCN1S(=O)(=O)/C=C/c1cccnc1` [Compound 11, (E)-1-((2-(pyridin-3-yl)vinyl)sulfonyl)-5,6-dihydropyridin-2(1H)-one], the IC50 with MOLP-8 (setting [2]) was 500 nM; with DU4475 (setting [3]), 580 nM; in experiment [1] it was 1900 nM.

In the case of `O=C1C=CC(F)CN1C(=O)/C=C/c1ncccn1` (stereo not shown) [Compound 37, (E)-5-fluoro-1-(3-(pyrimidin-2-yl)acryloyl)-5,6-dihydropyridin-2(1H)-one], the results for the IC50 (in the experiment with MOLP-8 (setting [2]); in the experiment with DU4475 (setting [3]); in experiment [1]) were 110 nM, 420 nM and 870 nM, respectively.

For `CS(=O)(=O)N1CCC(/C=C/C(=O)N2CCC=CC2=O)CC1` [Compound 47, 1-{(2E)-3-[1-(methylsulfonyl)piperidin-4-yl]prop-2-enoyl}-5,6-dihydropyridin-2(1H)-one], the IC50 in experiment [1] is 3140 nM.

With `C/C(=C\c1ncccn1)C(=O)N1CCC=CC1=O` [Compound 42, (E)-1-(2-methyl-3-(pyrimidin-2-yl)acryloyl)-5,6-dihydropyridin-2(1H)-one], in experiment [1], the IC50 stood at 2200 nM.

For `COc1cc(/C=C/C(=O)N2C(=O)C=CCC2(C)C)cc(OC)c1OC` [Compound 94, (E)-6,6-dimethyl-1-(3-(3,4,5-trimethoxyphenyl)acryloyl)-5,6-dihydropyridin-2(1H)-one], the IC50 in experiment [1] was determined as 3150 nM.

As to `CC1(/C=C/C(=O)N2CCC=CC2=O)CCN(C(=O)OC(C)(C)C)CC1` [Compound 64, tert-butyl (E)-4-methyl-4-(3-oxo-3-(6-oxo-3,6-dihydropyridin-1(2H)-yl)prop-1-en-1-yl)piperidine-1-carboxylate], in experiment [1], the IC50 is 4320 nM.

Consider `C/C(=C\c1ncccn1)C(=O)N1CCC=C(Cl)C1=O` [Compound 46, (E)-3-chloro-1-(2-methyl-3-(pyrimidin-2-yl)acryloyl)-5,6-dihydropyridin-2(1H)-one], for which, in experiment [1], the IC50 was 970 nM.

`O=C1C=CCCN1C(=O)/C=C/c1cnc2c(n1)OCCO2` [Compound 65, (E)-1-(3-(2,3-dihydro-[1,4]dioxino[2,3-b]pyrazin-6-yl)acryloyl)-5,6-dihydropyridin-2(1H)-one]: the IC50 in experiment [1] is 2250 nM.

As to `O=C1C=CCCN1C(=O)/C=C/C1CCN(c2ccc(F)cc2)CC1` [Compound 61, 1-{3-[1-(4-fluorophenyl)piperidin-4-yl]prop-2-enoyl}-5,6-dihydropyridin-2(1H)-one], the IC50 with MOLP-8 (setting [2]) was determined as 680 nM; in the experiment on DU4475 (setting [3]), 950 nM.

As to `O=C(c1ccccc1)N1CCC(/C=C/C(=O)N2CCC=CC2=O)CC1` [Compound 54, 1-[(2E)-3-(1-benzoylpiperidin-4-yl)prop-2-enoyl]-5,6-dihydropyridin-2(1H)-one], in experiment [1], the IC50 is 1400 nM.

For `O=C1C=CCCN1C(=O)/C=C/C1CCN(S(=O)(=O)c2ccc(F)cc2)CC1` [Compound 51, (E)-1-(3-(1-(4-fluorophenylsulfonyl)piperidin-4-yl)acryloyl)-5,6-dihydropyridin-2(1H)-one], the IC50 was 560 nM in the experiment with MOLP-8 (setting [2]) and 570 nM with DU4475 (setting [3]).

As for `O=C1C=CCCN1C(=O)/C=C/C1CCN(Cc2ccc(F)cc2)CC1` [Compound 60, 1-{3-[1-(4-fluorobenzyl)piperidin-4-yl]prop-2-enoyl}-5,6-dihydropyridin-2(1H)-one], the IC50 was 340 nM in the experiment with MOLP-8 (setting [2]) and 590 nM in the experiment with DU4475 (setting [3]).

In the case of `CC(C)(O)CN1CCC(/C=C/C(=O)N2CCC=CC2=O)CC1` [Compound 59, 1-{(2E)-3-[1-(2-hydroxy-2-methylpropyl)piperidin-4-yl]prop-2-enoyl}-5,6-dihydropyridin-2(1H)-one], the IC50 was determined as 390 nM with MOLP-8 (setting [2]) and 840 nM in the experiment on DU4475 (setting [3]).

With `O=C1C=C(Cl)CCN1C(=O)/C=C/c1ncccn1` [Compound 36, (E)-4-chloro-1-(3-(pyrimidin-2-yl)acryloyl)-5,6-dihydropyridin-2(1H)-one], in experiment [1], the IC50 stood at 2970 nM.

As for `COc1cc(/C=C/C(=O)N2CCC=CC2=O)cc(OC)c1OC` [Piperlongumine, 1-[(E)-3-(3,4,5-trimethoxyphenyl)prop-2-enoyl]-2,3-dihydropyridin-6-one], the IC50 in the experiment with MOLP-8 (read-out: average IC50 in multiple myeloma (MOLP-8) cells) was around 1010 nM; with DU4475 (read-out: average IC50 in triple negative breast cancer (DU4475) cells), around 1240 nM.

Take `O=C(c1ccc(F)cc1)N1CCC(/C=C/C(=O)N2CCC=CC2=O)CC1` [Compound 50, (E)-1-(3-(1-(4-fluorobenzoyl)piperidin-4-yl)acryloyl)-5,6-dihydropyridin-2(1H)-one]: the IC50 with MOLP-8 (setting [2]) came to 410 nM; in the experiment on DU4475 (setting [3]) it was 500 nM.

`O=C1C=CCCN1C(=O)/C=C/c1ccnnc1` [Compound 39, (E)-1-(3-(pyridazin-4-yl)acryloyl)-5,6-dihydropyridin-2(1H)-one]: the results for the IC50 in the experiment on MOLP-8 (setting [2]) and in the experiment on DU4475 (setting [3]) were 300 nM and 650 nM, respectively.

Consider `CN1CCC(/C=C/C(=O)N2CCC=CC2=O)CC1` [Compound 41, (E)-1-(3-(1-methylpiperidin-4-yl)acryloyl)-5,6-dihydropyridin-2(1H)-one], for which the IC50 in experiment [1] turned out to be 1240 nM.

For the origin of these results see US11485725B2, “Derivatives of piperlongumine and uses thereof” (Auransa Inc., priority 2017, dated 2022).
